Test system: nursery pigs
Test: Growth performance of nursery pigs: 0-42d BWG, ADG, ADFI, FCR, with and without Mecadox (Examples 34/35)
Assay type: in vivo
Procedure: Pigs: Approximately 3,240 pigs were placed in three rooms at a nursery farm with 27 pigs per pen and 15 pens per treatment using a randomized complete block design (a total of 8 treatments across 40 pens in each of 3 rooms). All pens were balanced with 14 gilts and 13 barrows. At weaning, weight, age and sow farm source were recorded. At weaning, pigs were placed with the same number of pigs from each sow farm per pen.
Allotment: Prior to allotment and each weighing event, standard weights were placed on each corner of the scale to ensure that the scale was correctly calibrated. At placement, the average weight of the pigs in each pen were determined and the data was provided as soon as possible for treatment allotment. At weaning, pens were ranked by average weight and weight blocks and pens were assigned to the ranked weights. Treatments were then randomly assigned within weight blocks. When the treatment assignments were done, pen assignments were provided also as soon as possible, and dietary treatments information was entered into the feeding system. Pigs were granted free access to feed and water throughout the trial.
Schedule: At arrival, the pigs were allotted to pens. A common pelleted diet was fed to all pigs for 7 days. This diet contained 55 ppm of Mecadox (50 g/ton). Dietary treatments were fed from day 7 to the end of the nursery phase (approximately 55 lb). Pens were allotted to dietary treatments on day 7. Diets were fed in two phases with the first phase from day 7 to 21 after weaning and the second phase from day 21 to the end of the nursery phase (day 21 to 42 after weaning).
Treatments: Dietary treatments were randomly assigned to 40 pens in each of 3 rooms for 5 replications per room and 15 replications total. The 8 treatments were structured as a 2×4 factorial with two diet types (with and without antibiotic; 55 ppm of Mecadox) and four levels of gluco-oligosaccharide (0, 200, 400 or 600 ppm). The gluco-oligosaccharides were prepared according to the procedures set forth in Examples above. The gluco-oligosaccharides were provided on a corn meal carrier, as described in Example 18, such that the 600 ppm dose was obtained with a 0.25% final diet inclusion rate (5 lb premix per ton final feed). All diets contained the same growth promoting levels of Cu and Zn at 200 ppm Cu and 2,000 ppm Zn, in the phase 2 diets and 200 ppm Cu in the phase 3 diet. The diets containing 0 and 0.25% of the premix containing the gluco-oligosaccharides were blended to form the intermediate treatments.
Diet Preparation: Diets were fed in meal form. The four diets required were the control diets for each diet type and the diets containing 0.25% gluco-oligosaccharide premix. The actual oligosaccharide levels in the test were 0, 200, 400, and 600 ppm with a carrier used such that the premix at 0.25% (5 lb/ton) will provide 600 ppm oligosaccharide.
Live Animal Data Collection: Pigs were weighed, counted and feed disappearance determined every 7 days during the experiment. Prior to each weighing event standard weights were placed on each corner of the scale to ensure proper calibration of the scale. Pig inventory, weight, removal and feed intake data were recorded and maintained throughout the trial. Data were collected on the standard data collection spreadsheet.
Statistical analysis: Pens were randomly allotted to treatments using body weight as a blocking factor. Weight block was added to the model as a random effect. Main effects and interaction between diet type and gluco-oligosaccharide level were determined. Data was analyzed for linear and quadratic effect of gluco-oligosaccharide levels.
The BWG benefit, ADG benefit, ADFI benefit, and FCR benefit were calculated for 0-42 days by taking the ratio of the respective values with respect to their corresponding controls and performing linear regression to determine the dose-effect of the gluco-oligosaccharide, resulting in the following regression equations set forth in Table 12 below. […]

[1] = 0-42d, Mecadox 55 ppm, Oligo 0 ppm
[2] = 0-42d, from regression equations, antibiotic growth promoter alone
[3] = nursery pigs, vs control, Mecadox 55 ppm, gluco-oligosaccharide 600 ppm without antibiotic (from regression)

`COC(=O)N/N=C/c1c[n+]([O-])c2ccccc2[n+]1[O-]` [Mecadox] was tested, and the ADFI [1] was 1.37 lbs/day, the ADG [1] was 0.93 lbs/day and the BWG [1] was 40.69 lbs. The FCR [1] was 1.47 lbs/lbs, the “ADFI Benefit” value [2] was 2.4% and the “ADG Benefit” value [2] was 3.2%. The “BWG Benefit” value [2] was 2.5%, the “FCR Benefit” value [2] was −0.2% and the “0-42d FCR” value (nursery pigs, vs control, Mecadox 55 ppm, gluco-oligosaccharide 600 ppm) was “did not improve”. The “improved 0-42d ADG” value [3] was 3.2%, the “improved 0-42d ADGI” value [3] was 2.4% and the “improved 0-42d BWG” value [3] was 2.5%.
